We go through 4 molecules from ChEMBL document CHEMBL3046704, “Control of Muhlenbergia frondosa (wirestem muhly) with post-emergence sulfonylurea herbicides in maize (Zea mays)” (Crop Prot, 2007).

In data set [1] the test system is Zea mays. Put plainly: Phytotoxicity against Zea mays (maize) crop assessed as crop injury at 35 g a.i./ha measured after 7 days in presence of 28% UAN relative to control. Format: organism-based. Conditions: in vivo, 168 h.
In data set [2] the test system is Muhlenbergia. In words: Post-emergence herbicidal activity against Muhlenbergia frondosa assessed as increase in maize yield at 35 g a.i./ha in presence of 28% UAN relative to untreated-control. It counts as functional.
In data set [3] the test system is Muhlenbergia. In words: Post-emergence herbicidal activity against Muhlenbergia frondosa at 35 g a.i./ha measured after 28 days in presence of 28% UAN relative to untreated-control. Format: functional.
Data set [4] concerns Muhlenbergia. Put plainly: Post-emergence herbicidal activity against Muhlenbergia frondosa assessed as reduction in dry weight at 35 g a.i./ha measured after 56 days in presence of 28% UAN relative to untreated-control. Details: scale not given: the % may be the effect or the level left. It counts as functional.
Data set [5] relates to Muhlenbergia. Put plainly: Post-emergence herbicidal activity against Muhlenbergia frondosa assessed as reduction in density at 35 g a.i./ha measured after 56 days in presence of 28% UAN relative to untreated-control. It counts as functional. Details: scale not given: the % may be the effect or the level left.
In data set [6] the test system is Muhlenbergia. Put plainly: Post-emergence herbicidal activity against Muhlenbergia frondosa at 35 g a.i./ha measured after 56 days in presence of 28% UAN relative to untreated-control. It counts as functional.
Data set [7] has as its system Muhlenbergia. In words: Post-emergence herbicidal activity against Muhlenbergia frondosa at 15 g a.i./ha measured after 56 days in presence of Agral 90 relative to untreated-control. Format: functional.
The test system of data set [8] is Muhlenbergia. Put plainly: Post-emergence herbicidal activity against Muhlenbergia frondosa assessed as dry weight at 15 g a.i./ha measured after 56 days in presence of Agral 90 (reference value: 102 g). Format: functional.
Data set [9] concerns Muhlenbergia. Put plainly: Post-emergence herbicidal activity against Muhlenbergia frondosa at 15 g a.i./ha measured after 28 days in presence of Agral 90 relative to untreated-control. It counts as functional.
Data set [10] relates to Muhlenbergia. Put plainly: Post-emergence herbicidal activity against Muhlenbergia frondosa assessed as increase in maize yield at 15 g a.i./ha in presence of Agral 90 relative to untreated-control. It counts as functional.
The test system of data set [11] is Elymus repens. In words: Post-emergence herbicidal activity against Elymus repens (couch grass) relative to control. Format: functional.
For data set [12], the system named is Zea mays. Put plainly: Phytotoxicity against Zea mays (maize) crop assessed as crop injury at 15 g a.i./ha measured after 7 days in presence of Agral 90 relative to control. It counts as organism-based. The note with it: in vivo, 168 h.
Data set [13] relates to Muhlenbergia. In words: Post-emergence herbicidal activity against Muhlenbergia frondosa assessed as number of plants at 15 g a.i./ha measured after 56 days in presence of Agral 90 (reference value: 41 /m2). Format: functional.
The subject of data set [14] is Elymus repens. In words: Post-emergence herbicidal activity against Elymus repens (couch grass) at 35 g/ha relative to control. It counts as functional.
For data set [15], the system named is Muhlenbergia. In words: Post-emergence herbicidal activity against Muhlenbergia frondosa at 25 g a.i./ha measured after 56 days in presence of Agral 90 relative to untreated-control. It counts as functional.
For data set [16], the system named is Muhlenbergia. Put plainly: Post-emergence herbicidal activity against Muhlenbergia frondosa assessed as reduction in density at 25 g a.i./ha measured after 56 days in presence of Agral 90 relative to untreated-control. Format: functional. On the set-up: scale not given: the % may be the effect or the level left.
The test system of data set [17] is Muhlenbergia. In words: Post-emergence herbicidal activity against Muhlenbergia frondosa assessed as increase in maize yield at 25 g a.i./ha in presence of Agral 90 relative to untreated-control. It counts as functional.
In data set [18] the test system is Zea mays. Put plainly: Phytotoxicity against Zea mays (maize) crop assessed as crop injury at 25 g a.i./ha measured after 7 days in presence of Agral 90 relative to control. Format: organism-based. Conditions: in vivo, 168 h.
Data set [19] has as its system Muhlenbergia. Put plainly: Post-emergence herbicidal activity against Muhlenbergia frondosa at 25 g a.i./ha measured after 28 days in presence of Agral 90 relative to untreated-control. It counts as functional.
In data set [20] the test system is Muhlenbergia. In words: Post-emergence herbicidal activity against Muhlenbergia frondosa assessed as reduction in dry weight at 25 g a.i./ha measured after 56 days in presence of Agral 90 relative to untreated-control. Format: functional. Details: scale not given: the % may be the effect or the level left.
For data set [21], the system named is Muhlenbergia. Put plainly: Post-emergence herbicidal activity against Muhlenbergia frondosa assessed as number of plants at 25 g a.i./ha measured after 56 days in presence of Agral 90 (reference value: 41 /m2). Format: functional.
Data set [22] relates to Elymus repens. Put plainly: Post-emergence herbicidal activity against Elymus repens (couch grass) at 42 g/ha relative to control. Format: functional.
Data set [23] deals with Muhlenbergia. In words: Post-emergence herbicidal activity against Muhlenbergia frondosa assessed as maize yield at 25 g a.i./ha in presence of Agral 90 (reference value: 9.64 tons/ha). It counts as functional.
Data set [24] deals with Muhlenbergia. Put plainly: Post-emergence herbicidal activity against Muhlenbergia frondosa assessed as dry weight at 25 g a.i./ha measured after 56 days in presence of Agral 90 (reference value: 102 g). Format: functional.

In the case of `COc1cc(OC)nc(NC(=O)NS(=O)(=O)c2cc(NC=O)ccc2C(=O)N(C)C)n1` [FORAMSULFURON], the Activity in the data set with Zea mays [1] is 1.1%; in the data set on Muhlenbergia [2], 17%; with Muhlenbergia [3] it was 80%; in the data set with Muhlenbergia [4], 94%; with Muhlenbergia [5], 76%; in the data set on Muhlenbergia [6] it was 89%.

With `CCS(=O)(=O)c1cccnc1S(=O)(=O)NC(=O)Nc1nc(OC)cc(OC)n1` [RIMSULFURON], the Activity is listed as 14% in the data set with Muhlenbergia [7]; 72 g with Muhlenbergia [8]; 32% with Muhlenbergia [9]; 11% with Muhlenbergia [10]; 63% with Elymus repens [11]; 1.2% in the data set with Zea mays [12]. For the same molecule, the Activity in the data set on Muhlenbergia [13] is recorded as 44 /m2.

With `COc1cc(OC)nc(NC(=O)NS(=O)(=O)c2ncccc2C(=O)N(C)C)n1` [NICOSULFURON], the Activity stood at 97% in the data set on Elymus repens [14]; 32% with Muhlenbergia [15]; 89% in the data set with Elymus repens [11]; 44% in the data set with Muhlenbergia [16]; 22% in the data set with Muhlenbergia [17]; 1.1% with Zea mays [18]. The Activity with Muhlenbergia [19] was determined as 49%; in the data set on Muhlenbergia [20], 70%.

With `O=C(Nc1nc(OC(F)F)cc(OC(F)F)n1)NS(=O)(=O)c1ccccc1C(=O)O` [PRIMISULFURON], the Activity is on record as 39 /m2 with Muhlenbergia [21]; 94% with Elymus repens [22]; 12% in the data set on Muhlenbergia [15]; 80% in the data set on Elymus repens [11]; 78 g in the data set with Muhlenbergia [24]; 1.2% with Zea mays [18]. Also, the Activity with Muhlenbergia [19] is reported as 32%. Besides, in the data set with Muhlenbergia [23], the Crop_yield turned out to be 10.1 tons/ha.
